According to the NIST ThermoML archive (doi:10.1021/acs.jced.6b00362):

What was measured:
[1] = refractive index (other wavelength) (dimensionless); xn = mol fraction of the nth substance listed; conditions: Liquid, Wavelength=632.8 nm, ellipsometry
[2] = Crystal; DTA
[3] = refractive index (other wavelength) (dimensionless); conditions: 101 kPa, Liquid, Wavelength=632.8 nm, ellipsometry
[4] = refractive index (Na D-line) (dimensionless); conditions: 101.33 kPa, Liquid, ellipsometry

[Cl-].[Cs+] [cesium chloride] + [Cl][Ce]([Cl])[Cl]
[1], 100 kPa, x2 = 0
Conditions | refractive index
1023 K | 1.439
1033 K | 1.438
1053 K | 1.434
1073 K | 1.43
1093 K | 1.426
1113 K | 1.423
1133 K | 1.419
1153 K | 1.415
1173 K | 1.411

[Cl][Sm]([Cl])[Cl] [samarium chloride]
Conditions | Normal melting temperature [°C]
[2] | 678

[3]
Conditions | refractive index
973 K | 1.712
1003 K | 1.705
1023 K | 1.701
1073 K | 1.691
1103 K | 1.684
1123 K | 1.68
1153 K | 1.674
1173 K | 1.672

[Cl-].[K+] [potassium chloride] + [Cl][Ce]([Cl])[Cl]
[1], 100 kPa, x2 = 0
Conditions | refractive index
1073 K | 1.393
1093 K | 1.39
1103 K | 1.388
1113 K | 1.386
1123 K | 1.385
1133 K | 1.383
1153 K | 1.38
1173 K | 1.377
1193 K | 1.374

[Cl][Nd]([Cl])[Cl] [neodymium(III) chloride]
Conditions | Normal melting temperature [°C]
[2] | 760

[3]
Conditions | refractive index
1053 K | 1.704
1073 K | 1.701
1093 K | 1.698
1113 K | 1.695
1133 K | 1.692
1153 K | 1.689
1173 K | 1.686
1193 K | 1.683
1213 K | 1.68

[Cl-].[Cs+] [cesium chloride] + [Cl-].[Cl-].[Cl-].[Gd+3]
[1], 100 kPa, x2 = 0
Conditions | refractive index
1023 K | 1.439
1033 K | 1.438
1053 K | 1.434
1073 K | 1.43
1093 K | 1.426
1113 K | 1.423
1133 K | 1.419
1153 K | 1.415
1173 K | 1.411

[Cl][Ce]([Cl])[Cl] [cerium trichloride] + [Cl-].[Cs+]
refractive index, [1], 100 kPa
Conditions | x1 = 0.25 | x1 = 0.5 | x1 = 0.75 | x1 = 1
1073 K | 1.495 | 1.553 | 1.627 | –
1103 K | 1.49 | 1.549 | 1.623 | 1.697
1123 K | 1.487 | 1.545 | 1.619 | –
1133 K | – | – | – | 1.691
1153 K | 1.482 | 1.54 | 1.614 | 1.688
1173 K | 1.479 | 1.537 | 1.61 | 1.685
1193 K | – | – | – | 1.681
1203 K | – | 1.532 | – | –
1213 K | – | 1.53 | – | 1.678
1223 K | – | – | 1.601 | –
1233 K | – | – | – | 1.674

[Cl-].[Cl-].[Cl-].[Gd+3] [gadolinium(III) chloride] + [Cl-].[Cs+]
refractive index, [1], 100 kPa
Conditions | 923 K | 973 K | 1023 K | 1073 K | 1103 K | 1123 K | 1173 K
x1 = 0.15 | – | – | – | 1.46 | 1.453 | 1.448 | 1.437
x1 = 0.5 | 1.568 | 1.56 | 1.552 | 1.543 | 1.538 | 1.535 | 1.526
x1 = 0.75 | 1.629 | 1.621 | 1.613 | 1.606 | 1.603 | 1.601 | 1.594
x1 = 1 | 1.7 | 1.685 | 1.68 | 1.675 | – | 1.664 | 1.662

[Cl-].[Cl-].[Cl-].[Gd+3] [gadolinium(III) chloride] + [Cl-].[K+]
refractive index, [1], 100 kPa
Conditions | 923 K | 973 K | 1023 K | 1073 K | 1123 K | 1173 K
x1 = 0.25 | – | – | 1.48 | 1.473 | 1.465 | 1.457
x1 = 0.5 | 1.557 | 1.551 | 1.546 | 1.54 | 1.534 | 1.529
x1 = 0.75 | 1.665 | 1.65 | 1.635 | 1.62 | 1.606 | 1.591
x1 = 1 | 1.7 | 1.685 | 1.68 | 1.675 | 1.664 | 1.662

[Cl-].[Na+] [sodium chloride]
[3]
Conditions | refractive index
1083 K | 1.41
1093 K | 1.408
1103 K | 1.407
1113 K | 1.406
1123 K | 1.405
1133 K | 1.404
1153 K | 1.402
1173 K | 1.399

[Cl-].[Na+] [sodium chloride] + [Cl-].[Cl-].[Cl-].[Gd+3]
[1], 100 kPa, x2 = 0
Conditions | refractive index
1083 K | 1.41
1093 K | 1.408
1103 K | 1.407
1113 K | 1.406
1123 K | 1.405
1133 K | 1.404
1153 K | 1.402
1173 K | 1.399

[Cl-].[Cl-].[Cl-].[Gd+3] [gadolinium(III) chloride]
Conditions | Normal melting temperature [°C]
[2] | 602

refractive index
Conditions | 923 K | 973 K | 1023 K | 1073 K | 1123 K | 1173 K
[3] | 1.7 | 1.685 | 1.68 | 1.675 | 1.664 | 1.662
[4] | 1.7 | 1.685 | 1.68 | 1.675 | 1.664 | 1.662

[Cl][Ce]([Cl])[Cl] [cerium trichloride] + [Cl-].[Na+]
refractive index, [1], 101 kPa
Conditions | 1073 K | 1103 K | 1123 K | 1133 K | 1153 K | 1173 K | 1193 K | 1213 K | 1223 K | 1233 K
x1 = 0.25 | 1.515 | 1.51 | 1.507 | – | 1.502 | 1.5 | – | – | – | –
x1 = 0.5 | 1.595 | 1.59 | 1.587 | – | 1.582 | 1.58 | 1.578 | – | – | –
x1 = 0.75 | 1.656 | 1.651 | 1.647 | – | 1.642 | 1.639 | 1.636 | – | 1.631 | –
x1 = 1 | – | 1.697 | – | 1.691 | 1.688 | 1.685 | 1.681 | 1.678 | – | 1.674

[Cl-].[Cs+] [cesium chloride]
[3]
Conditions | refractive index
1023 K | 1.439
1033 K | 1.438
1053 K | 1.434
1073 K | 1.43
1093 K | 1.426
1113 K | 1.423
1133 K | 1.419
1153 K | 1.415
1173 K | 1.411

[Cl-].[K+] [potassium chloride] + [Cl][Sm]([Cl])[Cl]
[1], 100 kPa, x2 = 0
Conditions | refractive index
1073 K | 1.393
1093 K | 1.39
1103 K | 1.388
1113 K | 1.386
1123 K | 1.385
1133 K | 1.383
1153 K | 1.38
1173 K | 1.377
1193 K | 1.374

[Cl-].[Na+] [sodium chloride] + [Cl][Ce]([Cl])[Cl]
[1], 101 kPa, x2 = 0
Conditions | refractive index
1083 K | 1.41
1093 K | 1.408
1103 K | 1.407
1113 K | 1.406
1123 K | 1.405
1133 K | 1.404
1153 K | 1.402
1173 K | 1.399
